Columns and labels:
[1] = test system: Ishikawa cells; assay: Ishikawa cell alkaline phosphatase assay; type: cell-based, human
Procedure: Cells were treated for 48 h prior to assay. […] Sample population for at each dose was n=8. […] Plates are placed at -80° C. for a minimum of 15 minutes. Plates are thawed at 37° C. followed by the addition of 150 μL of 0.1 M Tris-HCl, pH 9.8, containing 4 mM para-nitrophenylphosphate (pNPP) to each well (final concentration, 3 mM pNPP). Absorbance and slope calculations were made using the […] Application program (Bio-Tek Instruments, Inc., Winooski, Vt.). […] The four listed in the following were used as reference standards: A description of these methods is described by Holinka, […]., Kuramoto, H. and Gurpide, E. (1986) Effects of steroid hormones and antisteroids on alkaline phosphatase activity in human endometrial cancer cells (Ishikawa Line). Cancer Research, 46:2771-2774, and by […]. and […] simple and sensitive microtiter plate estrogen bioassay based on stimulation alkaline phosphatase in Ishikawa cells; […] Endocrinology, 6:2757-2762.

[2] = test system: Female Sprague Dawley CD rats, ovx; assay: 6-week ovariectomized rat model; type: in vivo; conditions: 2 μg/rat, s.c., following 6 weeks of treatment, mean ± SEM
Excerpt: Method No. 20 6-Week Ovariectomized Rat Model
Female Sprague Dawley CD rats, ovx or sham ovx, were obtained 1 day after surgery from Taconic Farm (weight range 240–275 g). They were housed 3 or 4 rats/cage in a room on a 14/10 (light/dark) schedule and provided with food (Purina 500 rat chow) and water ad libitum. Treatment for all studies began 1 day after the animals arrival and dosed 5 or 7 days per week as indicated for 6 weeks. A group of age matched sham operated rats not receiving any treatment served as an intact, estrogen replete control group for each study. All treatments were prepared in 1% tween 80 in normal saline at defined concentrations so that the treatment volume was 0.1 mL/100 g body weight. 17-beta estradiol was dissolved in corn oil (20 uG/mL) and delivered subcutaneously, 0.1 mL/rat. All dosages were adjusted at three week intervals according to group mean body weight measurements.
Five weeks after the initiation of treatment and one week prior to the termination of the study, each rat was evaluated for bone mineral density (BMD). The BMD's of the proximal tibiae (PT) and fourth lumbar vertabrae (L4) were measured in anesthetized rats using a dual energy X-ray absorptiometer (Eclipse XR-26, Norland Corp. Ft. Atkins, Wis.). […] Total cholesterol is determined using a Boehringer-Mannheim Hitachi 911 clinical analyzer using the Cholesterol/HP kit. […]

EC50 ([1]; reference standards, read-out: ED50 values (95% C.I.), estrogenic activity by the alkaline phosphatase method): 0.03 nM
SMILES: C[C@]12CC[C@@H]3c4ccc(O)cc4CC[C@H]3[C@@H]1CC[C@@H]2O [17β-estradiol]
% Activation ([1]; compound alone, percent of response related to 1 nM 17β-estradiol): 100%
Cholesterol [2]: 95.5 ± 3.9 mg/dL

Reference: patent US7132417B2, “2-phenyl-1-[4-(2-aminoethoxy)-benzyl]-indoles as estrogenic agents” (Wyeth, priority 1996, dated 2006)
